# Assay results: patent publication US9839642B2, “Beta-tetrazolyl-propionic acids as metallo-beta-lactamase inhibitors” (priority 2014, dated 2017)
# Where two headings read alike, the source gives them in different places.
# Columns and labels:
# [1] = system: Escherichia coli expressing NDM-1 (CLB30005); assay: Antibiotic potentiation activity: synergistic concentration (MITC95) with imipenem, growth by OD600; format: cell-based; conditions: 95% inhibition of bacterial growth, strain CLB30005
# Summary of the method: (§1)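 MITC95 = lowest inhibitor concentration giving 95% growth inhibition, read by absorbance after 22–24 h at 35° C. Compound range 200 μM to 0.195 μM, imipenem fixed at 1 or 4 μg/ml, bacteria in 1.1×CAMHB from saline suspension diluted 1:100.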
# [2] = system: Klebsiella pneumoniae expressing VIM-1 (IHMA599644); assay: as above; format: cell-based
# Summary of the method: as §1
# [3] = system: Serratia marcescens expressing IMP-1 (CL5741); assay: as above; format: cell-based
# Summary of the method: as §1
# VIM-1 = VIM-1 (Pseudomonas aeruginosa, UniProt A0A0F7KYQ8); assay: Enzyme activity: determination of IC50, fluorescence assay with CCF2-FA substrate; format: biochemical; conditions: CCF2-FA 1.25 μM, 2 hours at 25° C., read-out: VIM1 IC50
# Summary of the method: (§2)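 100 mM KH2PO4 pH 7 + 0.005% Tween-20 + 10 μM ZnSO4; CCF2-FA 1.25 μM; NDM-1 1 pM, IMP-1 2 pM, VIM-1 30 pM; cpd 20–0.00063 μM final, DMSO 1:50. 2 h, 25° C. Ex 405/em 460 nm; IC50, 4-param fit.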
# NDM-1 = NDM-1 (Klebsiella pneumoniae, UniProt C7C422); assay: as above; format: biochemical; conditions: CCF2-FA 1.25 μM, 2 hours at 25° C.
# Sequence of NDM-1 (C7C422 29-270, looked up, species assumed): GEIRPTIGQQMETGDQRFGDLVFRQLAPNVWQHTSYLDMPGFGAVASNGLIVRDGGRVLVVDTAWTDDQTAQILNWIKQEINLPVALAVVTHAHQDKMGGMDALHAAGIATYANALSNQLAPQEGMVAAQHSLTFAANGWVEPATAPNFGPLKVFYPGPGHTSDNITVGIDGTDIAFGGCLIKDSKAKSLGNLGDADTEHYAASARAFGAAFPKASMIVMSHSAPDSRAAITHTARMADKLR
# Summary of the method: as §2
# IMP-1 = IMP-1 (Serratia marcescens, UniProt P52699); assay: as above; format: biochemical; conditions: CCF2-FA 1.25 μM, 2 hours at 25° C., read-out: IMP1 IC50
# Sequence of IMP-1 (P52699 19-246, looked up, species assumed): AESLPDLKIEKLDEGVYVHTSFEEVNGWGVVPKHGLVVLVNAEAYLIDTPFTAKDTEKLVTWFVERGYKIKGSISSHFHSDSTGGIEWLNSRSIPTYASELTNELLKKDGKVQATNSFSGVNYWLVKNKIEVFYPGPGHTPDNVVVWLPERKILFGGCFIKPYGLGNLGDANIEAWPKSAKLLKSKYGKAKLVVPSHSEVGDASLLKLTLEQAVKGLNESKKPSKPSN
# Summary of the method: as §2
# [4] = system: Escherichia coli expressing NDM-1 (CLB30016); assay: Antibiotic potentiation activity: synergistic concentration (MITC95) with imipenem, growth by OD600; format: cell-based; conditions: E. coli CLB30016 (NDM-1), 95% inhibition of growth
# Summary of the method: as §1
# [5] = 95% inhibition of bacterial growth, strain IHMA599644
# [6] = 95% inhibition of bacterial growth, strain CL5741
# [7] = enzyme 1 pM, read-out: NDM1 IC50
# [8] = K. pneumoniae IHMA599644 (VIM-1), 95% inhibition of growth
# [9] = S. marcescens CL5741 (IMP-1), 95% inhibition of growth
# [10] = NDM-1 enzyme 1 pM, read-out: NDM1 IC50
Structure (SMILES),NDM1 EC30005 MITC95 [1] [µM],"VIM1 KP599644 MITC95 [2, 5] [µM]","IMP1 SM5741 MITC95 [3, 6] [µM]",IC50 (VIM-1; enzyme 30 pM) [nM],IC50 (NDM-1; [7]) [nM],IC50 (IMP-1; enzyme 2 pM) [nM],NDM1 EC30016 MITC95 [4] [µM],"VIM1 KP599644 MITC95 [2, 8] [µM]","IMP1 SM5741 MITC95 [3, 9] [µM]",IC50 (VIM-1; VIM-1 enzyme 30 pM) [nM],IC50 (NDM-1; [10]) [nM],IC50 (IMP-1; IMP-1 enzyme 2 pM) [nM],"IC50 (NDM-1; NDM1 IC50, NDM-1 enzyme 1 pM) [nM]"
"CC(C)=CCCC(C(=O)O)[C@H](Cc1ccccc1)c1nnn[nH]1 (stereo in doubt) [Example 15, (2R)-6-methyl-2-[(1S)-2-phenyl-1-(1H-tetrazol-5-yl)ethyl]hept-5-enoic acid]",15.6,200,>200,120,380,4800,–,–,–,–,–,–,–
"CCCCC(C(=O)O)[C@@H](Cc1ccc(-c2ccc(S(C)(=O)=O)cc2)cc1)c1nn[nH]n1 (stereo in doubt) [Example 183, (2R)-2-[(1R)-2-[4′-(methylsulfonyl)biphenyl-4-yl]-1-(2H-tetrazol-5-yl)ethyl]hexanoic acid]",>200,>200,>200,700,660,200,–,–,–,–,–,–,–
"CC(C)CCC[C@H](C(=O)O)[C@H](Cc1ccccc1)c1nnn[nH]1 [Example 1, (S)-6-Methyl-2-((S)-2-phenyl-1-(1H-tetrazol-5-yl)ethyl)heptanoic acid]",75,>200,138,> 20000,870,280,–,–,–,–,–,–,–
"CC(C)CCC[C@@H](C(=O)O)[C@H](Cc1ccccc1)c1nnn[nH]1 [Example 2, (R)-6-methyl-2-((S)-2-phenyl-1-(1H-tetrazol-5-yl)ethyl)heptanoic acid]",>200,>200,100,8200,5400,68,–,–,–,–,–,–,–
"O=C(O)[C@@H](Cc1ccccc1)[C@H](Cc1ccccc1)c1nnn[nH]1 [Example 3, (2S,3S)-2-benzyl-4-phenyl-3-(1H-tetrazol-5-yl)butanoic acid]",200,>200,112.5,640,350,550,–,–,–,–,–,–,–
"CC(C)C[C@H](C(=O)O)[C@H](Cc1ccc(COC2CCNCC2)c(F)c1)c1nn[nH]n1.O=C(O)C(F)(F)F [Example 447, 4-((4-((2S,3S)-3-carboxy-5-methyl-2-(2H-tetrazol-5-yl)hexyl)-2-fluorobenzyl)oxy)piperidin-1-ium 2,2,2-trifluoroacetate]",–,–,–,–,–,–,9.375,25,6.25,6.35,104,163,–
"CCC[C@H](C(=O)O)[C@H](Cc1ccccc1C1=CCC(NC)CC1)c1nn[nH]n1 (stereo partly drawn) [Example 448, 2′-((2S,3S)-3-carboxy-2-(2H-tetrazol-5-yl)hexyl)-N-methyl-2,3,4,5-tetrahydro-[1,1′-biphenyl]-4-aminium 2,2,2-trifluoroacetate]",–,–,–,–,–,–,12.5,37.5,200,48.6,92.5,7790,–
"CCC[C@H](C(=O)O)[C@H](Cc1ccccc1C1=CCC(N)CC1)c1nn[nH]n1 (stereo partly drawn) [Example 449, 2′-((2S,3S)-3-carboxy-2-(2H-tetrazol-5-yl)hexyl)-2,3,4,5-tetrahydro-[1,1′-biphenyl]-4-aminium 2,2,2-trifluoroacetate]",–,–,–,–,–,–,9.375,25,200,87.2,72.9,8860,–
"CC(C)C[C@H](C(=O)O)[C@H](Cc1ccc(C2=CCCNC2)c(F)c1)c1nn[nH]n1 [Example 450, 5-(4-((2S,3S)-3-carboxy-5-methyl-2-(2H-tetrazol-5-yl)hexyl)-2-fluorophenyl)-1,2,3,6-tetrahydropyridin-1-ium 2,2,2-trifluoroacetate]",–,–,–,–,–,–,7.813,18.75,6.25,2.18,88.9,138,–
"CNC1CC=C(c2ccc(C[C@H](c3nn[nH]n3)[C@H](CC(C)C)C(=O)O)cc2F)CC1 (stereo partly drawn) [Example 451, 4′-((2S,3S)-3-carboxy-5-methyl-2-(2H-tetrazol-5-yl)hexyl)-2′-fluoro-N-methyl-2,3,4,5-tetrahydro-[1,1′-biphenyl]-4-aminium 2,2,2-trifluoroacetate]",–,–,–,–,–,–,9.375,25,3.125,10.1,30.8,27.2,–
"CC(C)C[C@H](C(=O)O)[C@H](Cc1ccc(C2=CCNC2)c(F)c1)c1nn[nH]n1 [Example 452, 3-(4-((2S,3S)-3-carboxy-5-methyl-2-(2H-tetrazol-5-yl)hexyl)-2-fluorophenyl)-2,5-dihydro-1H-pyrrol-1-ium 2,2,2-trifluoroacetate]",–,–,–,–,–,–,9.375,12.5,9.375,0.937,93.1,222,–
"CC(C)C[C@H](C(=O)O)[C@H](Cc1ccc(C2=CCNCC2)c(F)c1)c1nn[nH]n1 [Example 453, 4-(4-((2S,3S)-3-carboxy-5-methyl-2-(2H-tetrazol-5-yl)hexyl)-2-fluorophenyl)-1,2,3,6-tetrahydropyridin-1-ium 2,2,2-trifluoroacetate]",–,–,–,–,–,–,6.25,12.5,3.125,2.25,–,101,64.5
"CC(C)C[C@H](C(=O)O)[C@H](Cc1ccc(-c2ccc(CN)cc2)c(F)c1)c1nn[nH]n1 [Example 454, (4′-((2S,3S)-3-carboxy-5-methyl-2-(2H-tetrazol-5-yl)hexyl)-2′-fluoro-[1,1′-biphenyl]-4-yl)methanaminium 2,2,2-trifluoroacetate]",–,–,–,–,–,–,4.688,25,1.563,3.52,29.5,24.7,–
"CC(C)C[C@H](C(=O)O)[C@H](Cc1ccc(C2=CCC(N)CC2)c(F)c1)c1nn[nH]n1 (stereo partly drawn) [Example 455, 4′-((2S,3S)-3-carboxy-5-methyl-2-(2H-tetrazol-5-yl)hexyl)-2′-fluoro-2,3,4,5-tetrahydro-[1,1′-biphenyl]-4-aminium 2,2,2-trifluoroacetate]",–,–,–,–,–,–,4.688,18.75,3.125,3.38,23.4,23.9,–
"CC(C)C[C@H](C(=O)O)[C@H](Cc1ccc(-c2ccc(C(N)=O)cc2)c(F)c1)c1nn[nH]n1 [Example 456, (S)-2-((S)-2-(4′-carbamoyl-2-fluoro-[1,1′-biphenyl]-4-yl)-1-(2H-tetrazol-5-yl)ethyl)-4-methylpentanoic acid]",–,–,–,–,–,–,18.75,37.5,0.7813,0.637,4.35,7.09,–
